Test results published in ChEMBL document CHEMBL6087405, “Discovery and optimization of anthraquinone derivatives containing substituted bisbenzyloxy groups as a novel scaffold damaged endoplasmic reticulum and against hepatocellular carcinoma cells” (Bioorg Med Chem, 2024).
Counter-ions that a name gives are not always drawn. Peptide text beside a SMILES is read from it. * marks the point of attachment. Cbz = O=C(OCc1ccccc1)*

Legend:
Huh-7 [1] = test: Induction of apoptosis in human Huh-7 cells assessed as viable cells at 20 uM measured after 48 hrs by Annexin V-PE staining based flow cytometry analysis (reference value: 93.69%); type: functional; details: read-out: Activity
Huh-7 [2] = test: Induction of apoptosis in human Huh-7 cells assessed as early apoptotic cells at 20 uM measured after 48 hrs by Annexin V-PE staining based flow cytometry analysis (reference value: 0.88%); type: functional
Huh-7 [3] = test: Induction of apoptosis in human Huh-7 cells assessed as late apoptotic cells at 20 uM measured after 48 hrs by Annexin V-PE staining based flow cytometry analysis (reference value: 2.06%); type: functional
Huh-7 [4] = test: Induction of apoptosis in human Huh-7 cells assessed as necrotic cells at 20 uM measured after 48 hrs by Annexin V-PE staining based flow cytometry analysis (reference value: 3.37%); type: functional
Huh-7 [5] = test: Antiproliferative activity against human Huh-7 cells measured after 48 hrs by MTT assay; type: functional, cell-based; details: Huh-7, 48 h
MDA-MB-231 = test: Antiproliferative activity against human MDA-MB-231 cells measured after 48 hrs by MTT assay; type: functional, cell-based; details: MDA-MB-231, 48 h
A549 = test: Antiproliferative activity against human A549 cells measured after 48 hrs by MTT assay; type: functional, cell-based; details: A549, 48 h

Q: With `CC(C)[C@H](NC(=O)OCc1ccccc1)C(=O)N[C@@H](C)C(=O)N[C@@H](CC(=O)O)C(=O)O` (Cbz-Val-Ala-Asp-OH) as the compound, how does the viability at 20 µM (Huh-7 [1]) read?
A: 91.1%

Q: What about the Activity (Huh-7 [2]) of the same compound?
A: 0.72%

Q: What about the Activity (Huh-7 [3]) of the same compound?
A: 2.37%

Q: What about the Activity (Huh-7 [4]) of the same compound?
A: 5.83%

Q: For `CNC(=O)c1cc(Oc2ccc(NC(=O)Nc3ccc(Cl)c(C(F)(F)F)c3)cc2)ccn1` [SORAFENIB], which IC50 (Huh-7 [5]) is on record?
A: 6.53 µM

Q: Which results are given for `Cc1ccc(COc2cccc3c2C(=O)c2c(OCc4ccc(C)cc4)cc(C(=O)NCCCCO)cc2C3=O)cc1`?
A: IC50 (MDA-MB-231): 1.29 µM; IC50 (Huh-7 [5]): 1.98 µM; IC50 (A549): 3.36 µM

Q: With `COc1cccc2c1C(=O)c1c(O)c3c(c(O)c1C2=O)C[C@@](O)(C(=O)CO)C[C@@H]3O[C@H]1C[C@H](N)[C@H](O)[C@H](C)O1` [DOXORUBICIN HYDROCHLORIDE] as the compound, how does the IC50 (MDA-MB-231) read?
A: 3.14 µM

Q: With `O=C(NCCOCCO)c1cc(OCc2ccc(Cl)cc2)c2c(c1)C(=O)c1cccc(OCc3ccc(Cl)cc3)c1C2=O` as the compound, how does the IC50 (MDA-MB-231) read?
A: 7.1 µM

Q: What about the IC50 (Huh-7 [5]) of the same compound?
A: 50.1 µM

Q: What about the IC50 (A549) of the same compound?
A: > 100 µM

Q: Which IC50 (MDA-MB-231) does the source give for `O=C(NCCCCO)c1cc(OCc2ccc(Cl)cc2)c2c(c1)C(=O)c1cccc(OCc3ccc(Cl)cc3)c1C2=O` here?
A: 17.5 µM

Q: What about the IC50 (Huh-7 [5]) of the same compound?
A: 20.9 µM

Q: What about the IC50 (A549) of the same compound?
A: > 100 µM

Q: Which IC50 (MDA-MB-231) does the source give for `O=C(NCCCCCCO)c1cc(OCc2ccc(Cl)cc2)c2c(c1)C(=O)c1cccc(OCc3ccc(Cl)cc3)c1C2=O` here?
A: 5.73 µM

Q: And the IC50 (Huh-7 [5])?
A: 36 µM

Q: And the IC50 (A549)?
A: > 100 µM

Q: Which results are given for `Cc1ccc(COc2cccc3c2C(=O)c2c(OCc4ccc(C)cc4)cc(C(=O)NCCO)cc2C3=O)cc1`?
A: IC50 (MDA-MB-231): 2.81 µM; IC50 (Huh-7 [5]): 4.37 µM; IC50 (A549): 13.1 µM

Q: `COc1ccc(COc2cccc3c2C(=O)c2c(OCc4ccc(OC)cc4)cc(C(=O)NCCCO)cc2C3=O)cc1` was tested. Which IC50 (MDA-MB-231) did it give?
A: 1.94 µM

Q: And the IC50 (Huh-7 [5])?
A: 1.69 µM

Q: What about the IC50 (A549) of the same compound?
A: 3.55 µM

Q: For `Cc1ccc(COc2cccc3c2C(=O)c2c(OCc4ccc(C)cc4)cc(C(=O)NCCNCCO)cc2C3=O)cc1`, which IC50 (MDA-MB-231) is on record?
A: 0.91 µM

Q: And the IC50 (Huh-7 [5])?
A: 1.96 µM

Q: What about the IC50 (A549) of the same compound?
A: 4.76 µM

Q: How did the IC50 (MDA-MB-231) turn out when `Cc1ccc(COc2cccc3c2C(=O)c2c(OCc4ccc(C)cc4)cc(C(=O)NCCOCCO)cc2C3=O)cc1` was run?
A: 6.14 µM

Q: What about the IC50 (Huh-7 [5]) of the same compound?
A: 14.9 µM

Q: And the IC50 (A549)?
A: > 100 µM

Q: `Cc1ccc(COc2cccc3c2C(=O)c2c(OCc4ccc(C)cc4)cc(C(=O)NCCCCCCO)cc2C3=O)cc1` was tested. Which IC50 (MDA-MB-231) did it give?
A: 2.36 µM

Q: What about the IC50 (Huh-7 [5]) of the same compound?
A: 4.83 µM

Q: What about the IC50 (A549) of the same compound?
A: 7.81 µM

Q: For `O=C(NCCNCCO)c1cc(OCc2ccc(Cl)cc2)c2c(c1)C(=O)c1cccc(OCc3ccc(Cl)cc3)c1C2=O`, which IC50 (MDA-MB-231) is on record?
A: 2.24 µM

Q: And the IC50 (Huh-7 [5])?
A: 40.4 µM

Q: And the IC50 (A549)?
A: > 100 µM

Q: Which IC50 (MDA-MB-231) does the source give for `O=C(NCCO)c1cc(OCc2ccc(Cl)cc2)c2c(c1)C(=O)c1cccc(OCc3ccc(Cl)cc3)c1C2=O` here?
A: 3.46 µM

Q: And the IC50 (Huh-7 [5])?
A: 4.79 µM

Q: What about the IC50 (A549) of the same compound?
A: 21.1 µM

Q: What does the source list for `O=C(NCCOCCO)c1cc(OCc2ccccc2)c2c(c1)C(=O)c1cccc(OCc3ccccc3)c1C2=O`?
A: IC50 (MDA-MB-231): 113 µM; IC50 (Huh-7 [5]): 64.4 µM; IC50 (A549): > 100 µM

Q: `O=C(NCCCO)c1cc(OCc2ccc(Cl)cc2)c2c(c1)C(=O)c1cccc(OCc3ccc(Cl)cc3)c1C2=O` was tested. Which IC50 (MDA-MB-231) did it give?
A: 6.36 µM

Q: What about the IC50 (Huh-7 [5]) of the same compound?
A: 5.87 µM

Q: What about the IC50 (A549) of the same compound?
A: > 100 µM

Q: How did the IC50 (MDA-MB-231) turn out when `COc1ccc(COc2cccc3c2C(=O)c2c(OCc4ccc(OC)cc4)cc(C(=O)NCCCCCO)cc2C3=O)cc1` was run?
A: 2.84 µM

Q: And the IC50 (Huh-7 [5])?
A: 4.14 µM

Q: And the IC50 (A549)?
A: 5 µM

Q: Which results are given for `Cc1ccc(COc2cccc3c2C(=O)c2c(OCc4ccc(C)cc4)cc(C(=O)NCCCO)cc2C3=O)cc1`?
A: IC50 (MDA-MB-231): 1.15 µM; IC50 (Huh-7 [5]): 3.75 µM; IC50 (A549): 5.79 µM

Q: Which results are given for `O=C(NCCCCCCO)c1cc(OCc2ccccc2)c2c(c1)C(=O)c1cccc(OCc3ccccc3)c1C2=O`?
A: IC50 (MDA-MB-231): 2.82 µM; IC50 (Huh-7 [5]): 8.87 µM; IC50 (A549): 62.5 µM

Q: Which results are given for `COc1ccc(COc2cccc3c2C(=O)c2c(OCc4ccc(OC)cc4)cc(C(=O)NCCO)cc2C3=O)cc1`?
A: IC50 (MDA-MB-231): 2.45 µM; IC50 (Huh-7 [5]): 2.71 µM; IC50 (A549): 4.68 µM

Q: What does the source list for `COc1ccc(COc2cccc3c2C(=O)c2c(OCc4ccc(OC)cc4)cc(C(=O)NCCCCCCO)cc2C3=O)cc1`?
A: IC50 (MDA-MB-231): 0.97 µM; IC50 (Huh-7 [5]): 1.13 µM; IC50 (A549): 3.49 µM

Q: How did the IC50 (MDA-MB-231) turn out when `COc1ccc(COc2cccc3c2C(=O)c2c(OCc4ccc(OC)cc4)cc(C(=O)NCCOCCO)cc2C3=O)cc1` was run?
A: 18.5 µM

Q: And the IC50 (Huh-7 [5])?
A: 9.24 µM

Q: What about the IC50 (A549) of the same compound?
A: 17 µM

Q: What does the source list for `COc1ccc(COc2cccc3c2C(=O)c2c(OCc4ccc(OC)cc4)cc(C(=O)NCCCCO)cc2C3=O)cc1`?
A: IC50 (MDA-MB-231): 0.86 µM; IC50 (Huh-7 [5]): 0.34 µM; IC50 (A549): 5.04 µM

Q: How did the IC50 (MDA-MB-231) turn out when `O=C(O)c1cc(O)c2c(c1)C(=O)c1cccc(O)c1C2=O` [RHEIN] was run?
A: > 100 µM

Q: What about the IC50 (Huh-7 [5]) of the same compound?
A: > 100 µM

Q: And the IC50 (A549)?
A: > 100 µM

Q: Which IC50 (MDA-MB-231) does the source give for `Cc1ccc(COc2cccc3c2C(=O)c2c(OCc4ccc(C)cc4)cc(C(=O)NCCCCCO)cc2C3=O)cc1` here?
A: 2.48 µM

Q: What about the IC50 (Huh-7 [5]) of the same compound?
A: 5.08 µM

Q: What about the IC50 (A549) of the same compound?
A: 12.3 µM

Q: For `O=C(NCCNCCO)c1cc(OCc2ccccc2)c2c(c1)C(=O)c1cccc(OCc3ccccc3)c1C2=O`, which IC50 (MDA-MB-231) is on record?
A: 1.27 µM

Q: And the IC50 (Huh-7 [5])?
A: 1.98 µM

Q: And the IC50 (A549)?
A: 5.66 µM

Q: With `O=C(NCCCCCO)c1cc(OCc2ccc(Cl)cc2)c2c(c1)C(=O)c1cccc(OCc3ccc(Cl)cc3)c1C2=O` as the compound, how does the IC50 (MDA-MB-231) read?
A: 16 µM

Q: What about the IC50 (Huh-7 [5]) of the same compound?
A: 51 µM

Q: What about the IC50 (A549) of the same compound?
A: > 100 µM
